Data on three compounds can be found in ChEMBL document CHEMBL1158284, “Biological activities of the nortropane alkaloid, calystegine B2, and analogs: structure-function relationships” (J Nat Prod, 1996).

In assay [1] the test system is Prunus dulcis. The assay is described as follows: (§1) Inhibition of almond beta-glucosidase.
Assay [2] relates to Aspergillus niger. The experiment in a line: (§2) Inhibition of Aspergillus niger alpha-galactosidase.
The subject of assay [3] is Sinorhizobium meliloti. The experiment in a line: Antibacterial activity against Cac gene-deficient Rhizobium meliloti RCR2011. In kind it is functional, organism-based.
The test system of another assay is Agrobacterium rhizogenes. The assay is described as follows: Antibacterial activity against Cac gene-deficient Agrobacterium rhizogenes HRI. In kind it is functional, organism-based.
Assay [4] deals with Medicago sativa. The experiment in a line: Allellopathic effect in Medicago sativa assessed as inhibition of seed germination at 5 mM. In kind it is functional.
Assay [5] concerns Medicago sativa. The experiment in a line: Allellopathic effect in Medicago sativa assessed as reduction in root elongation at 5 mM after 43 hrs. In kind it is functional. More on the design: scale not given: the % may be the effect or the level left.
The subject of assay [6] is Sinorhizobium meliloti. The experiment in a line: Induction of Cac gene-expressing Rhizobium meliloti 41 growth. In kind it is functional, organism-based.
Assay [7] in a line: as §1. More on the design: species or system Prunus dulcis.
Assay [8] is described as follows: as §2.
Assay [9] relates to Medicago sativa. The assay is described as follows: Allellopathic effect in Medicago sativa assessed as reduction in root elongation at 5 mM after 19 hrs. In kind it is functional. More on the design: scale not given: the % may be the effect or the level left.
In assay [10] the test system is Medicago sativa. The assay is described as follows: Allellopathic effect in Medicago sativa assessed as reduction in root elongation at 10 mM after 19 hrs. Also noted: scale not given: the % may be the effect or the level left. Format: functional.
The subject of assay [11] is Medicago sativa. The assay is described as follows: Allellopathic effect in Medicago sativa assessed as reduction in root elongation at 10 mM after 43 hrs. Format: functional. Also noted: scale not given: the % may be the effect or the level left.
The subject of assay [12] is Agrobacterium tumefaciens. The experiment in a line: Antibacterial activity against Cac gene-deficient Agrobacterium tumefaciens C58C1. In kind it is functional, organism-based.
The subject of assay [13] is Sinorhizobium meliloti. The experiment in a line: Antibacterial activity against Cac gene-deficient Rhizobium meliloti GMI13. In kind it is functional, organism-based.
For assay [14], the system named is Aspergillus niger. The experiment in a line: Inhibition of Aspergillus niger alpha-galactosidase 1.0 mg/mL.
The subject of assay [15] is Prunus dulcis. The assay is described as follows: Inhibition of almond beta-glucosidase at 0.5 mg/mL.
Assay [16] has as its system Medicago sativa. The experiment in a line: Allellopathic effect in Medicago sativa assessed as inhibition of seed germination up to 10 mM. In kind it is functional, organism-based.

Molecules are shown by their SMILES. Activity calls are given as the source filed them. The calls are words filed in the database; no cut-off is given here.

`CN1[C@@H]2CC[C@@]1(O)[C@@H](O)[C@H](O)[C@H]2O`: in the assay on Prunus dulcis [1], the outcome was inactive. In addition, the result with Aspergillus niger [2] was Active.
Consider `O[C@@H]1[C@@H](O)[C@H](O)[C@]2(O)CC[C@H]1N2` [CALYSTEGINE B2], for which the outcome (in the assay on Sinorhizobium meliloti [3]; in the assay with Agrobacterium rhizogenes; in assay [12]; in the assay with Sinorhizobium meliloti [13]) was inactive. In addition, the inhibition at 5000 µM with Medicago sativa [4] worked out at 50%. The Activity worked out at 12% in the assay on Medicago sativa [5], 37% in the assay with Medicago sativa [9], 46% in the assay on Medicago sativa [10] and 40% with Medicago sativa [11]. In addition, the outcome in the assay on Sinorhizobium meliloti [6] was Active. The results for the Ki in assay [7] and in assay [8] were 4 µM and 7 µM, respectively.
As to `O[C@H]1[C@H](O)[C@H](O)[C@@]2(O)CC[C@@H]1N2`, the outcome (with Sinorhizobium meliloti [3]; in the assay with Agrobacterium rhizogenes; in the assay on Aspergillus niger [14]; in the assay on Prunus dulcis [15]; in the assay on Medicago sativa [16]; in [12]) was inactive. Further, the result in the assay on Sinorhizobium meliloti [13] was inactive. In addition, the Activity in the assay with Medicago sativa [5] amounted to 8%; in the assay with Medicago sativa [9] it was 20%; with Medicago sativa [10], 25%; in the assay with Medicago sativa [11] it was 18%.

A word on the inhibition: it is the share of the control response that was lost under treatment. As usually defined, the Ki is the equilibrium dissociation constant of an inhibitor or competing ligand from its target.
